The results in this text go back to PMC9973354 (mBio, 2022).

Format in all cases: cell-based, Pseudomonas aeruginosa
Test [1] relates to PA14 ΔfpvA mutant. In words: MIC assay, ΔfpvA mutant. Particulars: Pseudomonas aeruginosa, PA14. The method, then: (§1) MIC assays were conducted as previously described ([13], [14]). Overnight cultures were grown in LB from a glycerol stock at 37°C with shaking (200 rpm). Subcultures in 10:90 (1:100 dilution) were cultured for 4 h. Cells were adjusted to an optical density at 600 nm (OD600) of 0.1/500 in 10:90. All compounds were serially diluted 2-fold in dimethyl sulfoxide (DMSO) or H2O at 75× the final concentration. Plates were sealed to prevent evaporation and incubated at 37°C overnight in a shaking incubator (200 rpm). The next day, the OD600 was determined with a plate reader (Thermo Scientific) and normalized to percent of growth of the vehicle control after subtracting the OD600 from blank media.

Test [2] deals with PA14 ΔfpvA ΔfpvB mutant. In words: MIC assay, ΔfpvA ΔfpvB mutant. Particulars: Pseudomonas aeruginosa, PA14. The method, then: as §1
The test system of a further test is PA14. The test can be described thus: Growth curves with DSX and siderophores, WT PA14. Particulars: DSX 64 μg/mL or pyoverdine 10 μg/mL alone, 20 h, 10:90. The method, then: (§2) Supplementary file : FIG S1 (A) FpvB is expressed in WT PA14 and the ΔfpvA mutant grown in 10:90. PilF was used as a loading control for outer membrane proteins. (B) FpvA is expressed from WT PA14 grown in 10:90. […] PilF was used as a loading control for outer membrane proteins. (C) Growth curves of PA14 and mutants with DSX and different siderophores in 10:90. PA14, ΔfpvA, ΔfpvB, ΔfpvA ΔfpvB, and ΔpvdA ΔpchA strain growth. Blue indicates control, purple indicates treatment with 64 μg/mL DSX, yellow indicates treatment with 10 μg/mL pyoverdine (PA14), and red indicates treatment with 64 μg/mL DSX and 10 μg/mL pyoverdine (PA14). (D) ΔfpvA, ΔfpvA ΔfpvB, and ΔpvdA ΔpchA strain growth. Blue indicates control, purple indicates treatment with 64 μg/mL DSX, grey indicates treatment with 10 μg/mL ferrichrome, and red indicates treatment with 64 μg/mL DSX and 10 μg/mL ferrichrome. (E) ΔfpvA, ΔfpvA ΔfpvB, and ΔpvdA ΔpchA strain growth. […] Download FIG S1, EPS file, 8.5 MB.
(§3) Another explanation for the susceptibility of the ΔfpvA mutant to DSX is that the mutant produces less pyoverdine compared to WT cells due to loss of the signaling cascade that controls siderophore production in response to its binding to FpvA ([25]). To differentiate whether the fpvA mutant was susceptible to DSX because of reduced pyoverdine production or because FpvB was a poor pyoverdine transporter, we treated the WT, ΔfpvA, ΔfpvB, and ΔfpvA ΔfpvB strains with DSX (64 μg/mL) without and with exogenous pyoverdine (10 μg/mL) for 20 h (Fig. 1; see also Fig. S1C). Growth of the ΔfpvA mutant should be restored if there are functional pyoverdine transporters. […] The growth of the ΔfpvA ΔfpvB mutant was inhibited by DSX and pyoverdine, confirming previously published results ([18]).

Test [3] has as its system PA14 ΔfpvA mutant. In words: Growth curves with DSX and siderophores, ΔfpvA. Particulars: DSX 64 μg/mL or pyoverdine 10 μg/mL alone, 20 h, 10:90. The method, then: as §2, §3
(§4) As a control, a ΔpvdA ΔpchA mutant unable to make pyoverdine and pyochelin was also tested. Growth of this mutant was inhibited by DSX.

In a further test the test system is PA14 ΔfpvB mutant. The test can be described thus: Growth curves with DSX and siderophores, ΔfpvB. Particulars: DSX 64 μg/mL or pyoverdine 10 μg/mL alone, 20 h, 10:90. The method, then: as §2, §3
The subject of test [4] is PA14 ΔfpvA ΔfpvB mutant. The test can be described thus: Growth curves with DSX and siderophores, ΔfpvA ΔfpvB. Particulars: DSX 64 μg/mL, pyoverdine 10 μg/mL, 20 h. How it is done: as §2, §3, §4
The next test relates to PA14 ΔpvdA ΔpchA mutant. The test can be described thus: Growth curves with DSX and siderophores, ΔpvdA ΔpchA. Particulars: DSX 64 μg/mL, 20 h. The method, then: as §2, §4
Test [5] relates to PA14 ΔfpvA ΔfpvB pHERD20T-fpvA. The test can be described thus: MIC assay, ΔfpvA ΔfpvB complemented with fpvA. Particulars: complementation with fpvA, arabinose induction. The method, then: (§5) The ΔfpvA ΔfpvB mutant was complemented in trans with pHERD20T-fpvA or pHERD20T-fpvB. pHERD20T is an arabinose-inducible vector with expression driven by the PBAD promoter under the control of AraC ([30]).
as §1

Test [6] deals with PA14 ΔfpvA ΔfpvB pHERD20T-fpvB. The test can be described thus: MIC assay, ΔfpvA ΔfpvB complemented with fpvB. Particulars: complementation with fpvB, arabinose induction. The method, then:
as §5, §1

The subject of another test is PA14 ΔfpvA mutants. In words: Growth phenotypes of deletion mutants, ΔfpvA mutants. Particulars: 64 μg/mL DSX, 10:90. The text has this:
(§6) PA14, ΔfpvA, ΔfpvB, and ΔfpvA ΔfpvB strains treated with TS (A) and DSX (B) in 10:90. Green indicates growth, and white indicates no growth. Growth is expressed as percent of control. The PA14 ΔfpvA ΔfpvB strain complemented with pHERD20T, fpvA, or fpvB treated with TS (C) and DSX (D) in 10:90. […] All experiments are averaged from three independent biological replicates. Blue indicates growth and white indicates no growth. (H) Summary of growth phenotypes of WT PA14 and combinations of single, double, triple, and quadruple deletion mutants in fpvA, fpvB, fiuA, and foxA. […] Green indicates growth, whereas no growth is indicated in white. […] Representative plates are shown.
(§7) If there were no transporters for a particular siderophore, the mutant would fail to grow due to iron restriction.

Test [7] has as its system PA14 ΔfpvA ΔfpvB ΔfiuA ΔfoxA quadruple mutant. The test can be described thus: Growth phenotypes of deletion mutants, quadruple mutant. Particulars: 64 μg/mL DSX, 10 μg/mL siderophores, 10:90.
Description: as §6, §7

Test [8] concerns PA14 ΔfpvA ΔfpvB pHERD20T-fpvA T660C. In words: MIC assay, ΔfpvA ΔfpvB expressing FpvA T660C. Particulars: 10:90 + 2% arabinose. From the text: FpvA T660C was used previously to measure pyoverdine-Fe^3+ binding affinity ([32]). However, this technique has not been applied to FpvB. A high-confidence structural model of FpvB was generated using AlphaFold2 ([33], [34]) and aligned with the structure of FpvA (PDB accession number 2O5P) to identify a residue suitable for labeling, with the assumption that FpvA and FpvB undergo similar conformational changes upon ferrisiderophore binding (see Fig. S3A through C in the supplemental material). Based on this analysis, FpvB R648 was mutated to Cys. FpvA T660C and FpvB R648C were each expressed in trans in the ΔfpvA ΔfpvB mutant. […] We could also detect expression by fluorescence microscopy with peripheral labeling consistent with expression in the outer membrane (Fig. 3B). Labeling was undetectable in empty vector and WT controls (see Fig. S4A in the supplemental material).
Supplementary file : FIG S3 Overlay of FpvA and FpvB showing residues mutated to cysteine for labeling with maleimide dyes. FpvA (PDB accession number 2O5P) was superimposed with the AlphaFold2 model of FpvB. FpvA is shown in beige and FpvB in blue. […]
MIC assays were conducted as previously described ([13], [14]). […] The next day, the OD600 was determined with a plate reader (Thermo Scientific) and normalized to percent of growth of the vehicle control after subtracting the OD600 from blank media.

Another test has as its system FpvB. The test can be described thus: Western blot of FLAG-tagged FpvB expression after compound treatment. Particulars: WT PA14 fpvB-FLAG; 10 μg/mL siderophores, 64 μg/mL DSX, 10:90. Background: Immunoblotting shows a protein as a band on a membrane.
Test [9] deals with PA14 ΔfpvA ΔfpvB pHERD20T-fpvA. In words: Checkerboard assay TS and siderophores, FpvA expressed. Particulars: 10:90 + 2% arabinose. The text has this:
We investigated this hypothesis by treating the ΔfpvA ΔfpvB mutant complemented with fpvA or fpvB with TS and pyoverdine-Fe^3+. If pyoverdine competes with TS for the same binding site in the transporter, a reduction in TS susceptibility would be expected, as competition would decrease entry of the antibiotic into the cell. TS susceptibility decreased >8-fold with increasing concentrations of pyoverdine-Fe^3+ when FpvA was expressed (see Fig. S2A in the supplemental material).
Supplementary file : FIG S2 Checkerboard assays of the PA14 ΔfpvA ΔfpvB strain complemented with fpvA and fpvB in trans with TS and siderophores. […] Checkerboards of the PA14 ΔfpvA ΔfpvB pHERD20T-fpvB strain with TS and enterobactin (G), ferrioxamine E (H), and arthrobactin (I). Results are averaged from three independent biological replicates. Cells in the assay were grown in 10:90 + 2% arabinose. Download FIG S2, EPS file, 2.2 MB.
Checkerboards (8 rows by 8 columns) were conducted as previously described in a 96-well plate (Nunc) ([13], [14]). TS at 75× the final concentration dissolved in DMSO was added in columns from bottom to top in increasing concentrations. Siderophores at 75× the final concentration dissolved in DSMO were added from in rows from left to right in increasing concentrations. Four columns were used for vehicle controls (DMSO) and sterile controls. […] Plates were sealed to prevent evaporation and incubated at 37°C overnight in a shaking incubator (200 rpm). The next day, the OD600 was determined with a plate reader (Thermo Scientific) and normalized to percent of growth of the vehicle control (DMSO) after subtracting the OD600 from blank media.

Test [10] deals with PA14 mutant combinations that include ΔfoxA. The test can be described thus: Growth phenotypes of deletion mutants, ΔfoxA combinations. Particulars: any mutant combination with ΔfoxA; 10 μg/mL ferrioxamine E, 10:90.
Description: as §6, §7

Values after ≈ are worked out from the molar mass of the structure shown.

Usually MIC stands for the smallest concentration in the dilution series that meets the test's criterion for growth inhibition. A high value points to weaker potency. On to `O=C(O)c1ccc(-n2nc(-c3ccccc3O)nc2-c2ccccc2O)cc1` [DSX, deferasirox], for which the minimal inhibitory concentration (MIC) in the test on PA14 ΔfpvA mutant [1] and with PA14 ΔfpvA ΔfpvB mutant [2] was 8 µg/mL (≈ 21.4 µM) in each case. For the same compound, the growth versus control entry in the test with PA14 is “growth was similar between the control and DSX conditions”; in the test with PA14 ΔfpvA mutant [3] it was “inhibited growth”; in the test with PA14 ΔfpvB mutant, “growth was similar between the control and DSX conditions”; with PA14 ΔfpvA ΔfpvB mutant [4] it was “inhibited”; with PA14 ΔpvdA ΔpchA mutant, “inhibited”. Further, the figures for the “growth with DSX” value in test [5], in [6] and in test [8] were “restored growth”, “could not restore growth” and “restored growth with DSX”, respectively. Also, the “growth in the presence of compound” value is “unable to grow” with PA14 ΔfpvA mutants and “failed to grow” in test [7]. The “stimulation of FpvB expression” value in the test on FpvB is listed as “None of the compounds stimulated expression”.

As to `O=C1CCC(=O)N(O)CCCCCNC(=O)CCC(=O)N(O)CCCCCNC(=O)CCC(=O)N(O)CCCCCN1` [ferrioxamine E], in [9], the “effect of siderophore on TS susceptibility” value is reported as “None of those siderophores reduced TS susceptibility”. The results for the “growth in the presence of compound” value in test [10] and in [7] were “inhibited” and “failed to grow”, respectively.
